The assay has as its system P388 leukemia ip, CD2F1 mice, survival T/C. Briefly: NCI In Vivo Anticancer Drug Screen. Data for tumor model P388 Leukemia (intraperitoneal) in CD2F1 (CDF1) mice. Conditions: endpoint: median survival time, higher = longer survival. In outline: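 Mice carrying the transplanted tumor received test compound or vehicle. Survival was recorded in each group, and the value is the treated-group measurement divided by that of the vehicle-treated control group.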

Where [1] appears, read: dose: 25.0 mg/kg/injection, schedule: Q01DX005 (ip), vehicle: saline.
Setting [2] is: dose: 50.0 mg/kg/injection, schedule: Q01DX005 (ip), vehicle: saline.
Where [3] appears, read: dose: 100.0 mg/kg/injection, schedule: Q01DX005 (ip), vehicle: saline.
Setting [4] is: dose: 50.0 mg/kg/injection, schedule: Q01DX009 (ip), vehicle: saline with Tween-80.
[5] abbreviates: dose: 100.0 mg/kg/injection, schedule: Q01DX009 (ip), vehicle: saline with Tween-80.
[6] abbreviates: dose: 200.0 mg/kg/injection, schedule: Q01DX009 (ip), vehicle: saline with Tween-80.
The mark [7] stands for this setting: dose: 12.5 mg/kg/injection, schedule: Q01DX009 (ip), vehicle: saline with Tween-80.
Setting [8] is: dose: 25.0 mg/kg/injection, schedule: Q01DX009 (ip), vehicle: saline with Tween-80.
Setting [9] is: dose: 50.0 mg/kg/injection, schedule: Q01DX009 (ip), vehicle: water.
[10] abbreviates: dose: 100.0 mg/kg/injection, schedule: Q01DX009 (ip), vehicle: water.
[11] abbreviates: dose: 200.0 mg/kg/injection, schedule: Q01DX009 (ip), vehicle: water.
[12] abbreviates: dose: 50.0 mg/kg/injection, schedule: Q01DX009 (ip), vehicle: Klucel (hydroxypropylcellulose) (HPC).
[13] abbreviates: dose: 50.0 mg/kg/injection, schedule: Q01DX009 (ip), vehicle: saline.
Where [14] appears, read: dose: 100.0 mg/kg/injection, schedule: Q01DX009 (ip), vehicle: saline.
Where [15] appears, read: dose: 200.0 mg/kg/injection, schedule: Q01DX009 (ip), vehicle: saline.

Values joined by “and” are separate entries in the source; they are usually repeats but may differ in a detail not shown here. Identical values can stand only once. Inconclusive results and toxic doses are left out.

Regarding `C1CCC2C(C1)CCC1COCN12` (stereo not drawn), the T/C is 98 % of control (dose: 12.5 mg/kg/injection, schedule: Q01DX005 (ip), vehicle: Klucel (hydroxypropylcellulose) (HPC)); 108 % of control (dose: 12.5 mg/kg/injection, schedule: Q01DX005 (ip), vehicle: saline); 100 % of control (dose: 25.0 mg/kg/injection, schedule: Q01DX005 (ip), vehicle: Klucel (hydroxypropylcellulose) (HPC)); 100 % of control under setting [1]; 105 % of control (dose: 50.0 mg/kg/injection, schedule: Q01DX005 (ip), vehicle: Klucel (hydroxypropylcellulose) (HPC)); 103 % of control and 119 % of control under setting [2]. The T/C reads like this: (dose: 100.0 mg/kg/injection, schedule: Q01DX005 (ip), vehicle: Klucel (hydroxypropylcellulose) (HPC)) 114 % of control; under setting [3], 118 % of control and 124 % of control; (dose: 200.0 mg/kg/injection, schedule: Q01DX005 (ip), vehicle: saline) 101 % of control.

With `Nc1[nH]c(=S)[nH]c(=O)c1NS(=O)(=O)c1ccccc1`, the T/C runs as follows: (dose: 30.0 mg/kg/injection, schedule: Q01DX005 (ip), vehicle: Klucel (hydroxypropylcellulose) (HPC)) 104 % of control and 106 % of control; (dose: 120.0 mg/kg/injection, schedule: Q01DX005 (ip), vehicle: Klucel (hydroxypropylcellulose) (HPC)) 98 % of control and 97 % of control; (dose: 240.0 mg/kg/injection, schedule: Q01DX005 (ip), vehicle: Klucel (hydroxypropylcellulose) (HPC)) 98 % of control and 108 % of control.

Take `O=C1Nc2ccccc2S/C1=C\c1cccc(C(F)(F)F)c1`: the T/C is, setting by setting: under setting [4], 94 % of control; under setting [5], 100 % of control; under setting [6], 105 % of control.

As to `O=C(CC(=O)C(F)(F)F)c1csc2ccccc12`, the T/C is, setting by setting: under setting [7], 95 % of control; (dose: 12.5 mg/kg/injection, schedule: Q04DX003 (ip), vehicle: saline with Tween-80) 100 % of control; under setting [8], 100 % of control; (dose: 25.0 mg/kg/injection, schedule: Q04DX003 (ip), vehicle: saline with Tween-80) 100 % of control; under setting [4], 109 % of control; (dose: 50.0 mg/kg/injection, schedule: Q04DX003 (ip), vehicle: saline with Tween-80) 109 % of control.

In the case of `O=C1NC(=O)C2(CC3CCCC(C2)N3CCO)N1` (stereo not drawn), the T/C by setting is: under setting [9], 101 % of control; under setting [10], 101 % of control; under setting [11], 100 % of control.

`CN(C)CCC(=O)c1ccc(C(=O)CCN(C)C)cc1`: the T/C under setting [1] is 108 % of control, the T/C under setting [2] is 107 % of control and the T/C under setting [3] is 107 % of control.

With `CN1CCc2c(c3ccccc3c3ccccc23)C1`, the T/C is 99 % of control (dose: 0.09 mg/kg/injection, schedule: Q01DX009 (ip), vehicle: Klucel (hydroxypropylcellulose) (HPC)); 107 % of control (dose: 0.19 mg/kg/injection, schedule: Q01DX009 (ip), vehicle: Klucel (hydroxypropylcellulose) (HPC)); 104 % of control (dose: 0.39 mg/kg/injection, schedule: Q01DX009 (ip), vehicle: Klucel (hydroxypropylcellulose) (HPC)); 102 % of control (dose: 0.78 mg/kg/injection, schedule: Q01DX009 (ip), vehicle: Klucel (hydroxypropylcellulose) (HPC)); 104 % of control and 91 % of control (dose: 1.56 mg/kg/injection, schedule: Q01DX009 (ip), vehicle: Klucel (hydroxypropylcellulose) (HPC)); 94 % of control (dose: 3.12 mg/kg/injection, schedule: Q01DX009 (ip), vehicle: Klucel (hydroxypropylcellulose) (HPC)). The T/C (dose: 6.25 mg/kg/injection, schedule: Q01DX009 (ip), vehicle: Klucel (hydroxypropylcellulose) (HPC)) was 86 % of control and 96 % of control; the T/C (dose: 12.5 mg/kg/injection, schedule: Q01DX009 (ip), vehicle: Klucel (hydroxypropylcellulose) (HPC)) is 104 % of control; the T/C (dose: 25.0 mg/kg/injection, schedule: Q01DX009 (ip), vehicle: Klucel (hydroxypropylcellulose) (HPC)) is 113 % of control and 92 % of control; the T/C under setting [12] is 105 % of control.

Turning to `CCOC(=O)c1ccc(NCc2ccc(CNc3ccc(C(=O)OCC)cc3)cc2)cc1`, the T/C is 105 % of control (dose: 6.25 mg/kg/injection, schedule: Q01DX009 (ip), vehicle: saline with Tween-80); 103 % of control under setting [7]; 94 % of control under setting [8]; 89 % of control under setting [4]; 89 % of control under setting [5].

Regarding `CC(N)C(=O)NC1C(O)OC(CO)C(O)C1O` (stereo not drawn), the T/C (dose: 25.0 mg/kg/injection, schedule: Q01DX009 (ip), vehicle: water) was 101 % of control; the T/C under setting [9] was 104 % of control; the T/C under setting [10] is 111 % of control; the T/C under setting [11] was 104 % of control; the T/C (dose: 400.0 mg/kg/injection, schedule: Q01DX009 (ip), vehicle: water) was 101 % of control; the T/C (dose: 800.0 mg/kg/injection, schedule: Q01DX009 (ip), vehicle: water) was 93 % of control.

For `Cc1ccc(S(=O)(=O)C(Cl)(SCl)Sc2ccccc2)cc1` (stereo not drawn), the T/C is, setting by setting: under setting [12], 95 % of control; (dose: 100.0 mg/kg/injection, schedule: Q01DX009 (ip), vehicle: Klucel (hydroxypropylcellulose) (HPC)) 93 % of control; (dose: 200.0 mg/kg/injection, schedule: Q01DX009 (ip), vehicle: Klucel (hydroxypropylcellulose) (HPC)) 93 % of control.

For `CN1CCN(CC2C(=O)C3CCC2C3)CC1` (stereo not drawn), the T/C was 93 % of control (dose: 50.0 mg/kg/injection, schedule: Q01DX005 (ip), vehicle: saline with Tween-80) and 101 % of control (dose: 100.0 mg/kg/injection, schedule: Q01DX005 (ip), vehicle: saline with Tween-80).

For `COc1cc2c(=O)oc3c(OC)c(O)cc4c(=O)oc(c1OC)c2c34`, the T/C was 97 % of control (dose: 2.0 mg/kg/injection, schedule: Q01DX005 (ip), vehicle: saline with Tween-80); 100 % of control and 96 % of control and 98 % of control (dose: 4.0 mg/kg/injection, schedule: Q01DX005 (ip), vehicle: saline with Tween-80); 92 % of control and 96 % of control and 98 % of control (dose: 8.0 mg/kg/injection, schedule: Q01DX005 (ip), vehicle: saline with Tween-80); 87 % of control and 91 % of control (dose: 16.0 mg/kg/injection, schedule: Q01DX005 (ip), vehicle: saline with Tween-80); 89 % of control (dose: 32.0 mg/kg/injection, schedule: Q01DX005 (ip), vehicle: saline with Tween-80).

Regarding `CCCCCCCOc1cccc(OCCCC[N+]2(CC)CCCCC2)c1`, the T/C was 97 % of control (dose: 1.56 mg/kg/injection, schedule: Q01DX009 (ip), vehicle: saline); 100 % of control (dose: 3.12 mg/kg/injection, schedule: Q01DX009 (ip), vehicle: saline); 100 % of control (dose: 6.25 mg/kg/injection, schedule: Q01DX009 (ip), vehicle: saline).

As to `Cc1ccc(Nc2cccc3c2C(=O)c2cccc(Nc4ccc(C)cc4S(=O)(=O)O)c2C3=O)c(S(=O)(=O)O)c1`, the T/C is, setting by setting: under setting [4], 108 % of control; under setting [5], 100 % of control; under setting [6], 101 % of control.

Turning to `N#CCc1ccccc1C(C#N)C(=O)CCC(=O)C(C#N)c1ccccc1CC#N` (stereo not drawn), the T/C runs as follows: (dose: 60.0 mg/kg/injection, schedule: Q01DX005 (ip), vehicle: saline with Tween-80) 104 % of control; (dose: 120.0 mg/kg/injection, schedule: Q01DX005 (ip), vehicle: saline with Tween-80) 103 % of control; (dose: 240.0 mg/kg/injection, schedule: Q01DX005 (ip), vehicle: saline with Tween-80) 102 % of control.

Regarding `CCOC(=O)C(CC(=O)O)=C(c1ccccc1)c1ccccc1`, the T/C was 107 % of control under setting [13], 100 % of control under setting [14] and 107 % of control under setting [15].

Regarding `NCc1cc(O)c(O)c(O)c1`, the T/C (dose: 25.0 mg/kg/injection, schedule: Q01DX009 (ip), vehicle: saline) was 100 % of control; the T/C under setting [13] was 103 % of control and 120 % of control; the T/C under setting [14] is 110 % of control and 118 % of control and 114 % of control; the T/C under setting [15] was 116 % of control and 120 % of control and 122 % of control; the T/C (dose: 400.0 mg/kg/injection, schedule: Q01DX009 (ip), vehicle: saline) was 121 % of control and 123 % of control and 124 % of control; the T/C (dose: 600.0 mg/kg/injection, schedule: Q01DX009 (ip), vehicle: saline) was 155 % of control and 157 % of control and 150 % of control.

`CCOC(=O)[C@@H](F)[C@H](Br)C(=O)OCC`: the T/C is, setting by setting: under setting [4], 100 % of control and 110 % of control; under setting [5], 113 % of control and 122 % of control.

Values taken from PubChem BioAssay AID330 (DTP/NCI, 2004).
